In publication PMC9519552, “Activation of the human insulin receptor by non-insulin-related peptides” (Nature Communications, 2022):
Like-named read-outs stand apart in the source and are kept apart here. Positions of bridges follow the written chain, without caps; N, C: chain ends. Residues, ends and D or L forms follow the SMILES beside them.

Tests used:
human IR-A (holoIR-A) = biological target: T1, human IR-A (holoIR-A) (Homo sapiens, UniProt P06213); assay: holoIR-A competitive radioligand binding assay (scintillation proximity assay); conditions: for Ki: IM172N22(-) mutant peptide set; for reduction in ki for hIR-A on substitution: relative to control peptide IM172N22 devoid of N-terminal phenylacetylation
T1 construct: expressed in transfected cells; host or cells: HEK293 (ATCC #CRL-1573), stably transfected; membrane preparation
Method: Cellular membranes were prepared from human embryonic kidney (HEK293; ATCC #CRL-1573) cells stably transfected with cDNA corresponding to human IR-A (holoIR-A) plus a C-terminal C9 tag ([…]) inserted within a pcDNA3.1 plasmid (Invitrogen), with positive clones selected with 800 μg mL^−1 neomycin and confirmed by Western Blot. Frozen cell pellets were thawed in ice-cold homogenization/resuspension buffer (50 mM Tris-HCl, pH 7.5) containing one cOmplete® protease inhibitor tablet with EDTA (Roche Diagnostics) per 50 mL buffer. Cells were homogenized with an overhead motor-driven Teflon-glass homogenizer using 15–20 strokes, followed by centrifugation at 1100 × g for 10 min at 4 °C. The supernatant was saved on ice, pellets were homogenized as before, and centrifuged at 1100 × g for 10 min at 4 °C. Both supernatants were combined and subsequently centrifuged at 35,000 × g for 60 min at 4 °C. The pellet was resuspended in buffer (4 to 5 mL g^−1 of starting cell paste) containing protease inhibitors and quick frozen in liquid nitrogen prior to storage at −80 °C. Protein concentration was determined using a BCA kit (Thermo Scientific) with bovine serum albumin (BSA) as standard.
The assays were performed with a scintillation proximity assay (SPA) method using polyvinyltoluene (PVT) wheat germ agglutinin-coupled SPA beads (Perkin Elmer). Assay buffer containing 50 mM Tris-HCl (pH 7.5), 150 mM NaCl, 0.1% w/v fatty-acid free BSA was used for all compound testing and reagent preparation. Ten-point concentration response curves with three-fold serial dilutions of test samples or controls were prepared in the assay buffer. […] Plates were sealed and shaken for 1 min on a plate shaker. Following a 10-h incubation and bead settling period at room temperature, radioactivity was determined using a MicroBeta Trilux scintillation counter (Perkin Elmer) and expressed as counts per minute (CPM). […] Samples were tested in three independent assay runs on three different days.
All test sample concentration responses were normalized to the control response and calculated as a percent of the maximal response after correcting for nonspecific binding as shown below: %Specific Inhibition=100%−[(CPM−MIN)/(MAX−MIN)×100%]
Percent specific binding (y-axis) was plotted vs log concentration of compound (x-axis) using Prism Version 9.3.1 (GraphPad Software). Individual measurements are provided as Source Data.

[1] = biological target: T2, human holoIR-A over-expressed in HEK293 cells (Homo sapiens, UniProt P06213); assay: Inhibition of hIR phosphorylation by peptides, co-incubated with BHI at its EC50 (ELISA); format: cell-based; conditions: for hIRA Phosph IC50 Run 1 / hIRA Phosph IC50 Run 2 / hIRA Phosph IC50 Run 3: inhibition of insulin-stimulated phosphorylation; for hIRA Phosph IC50 Run 1: BHI at its EC50, run 1; for hIRA Phosph IC50 Run 2: BHI at its EC50, run 2; for hIRA Phosph IC50 Run 3: BHI at its EC50, run 3; for IC50: read-out: hIRA Phosph IC50 Mean
T2 construct: expressed in transfected cells; host or cells: HEK293, stably transfected
Method: Phosphorylation was quantified using an ELISA technique. Ninety-six well, flat-bottom microplates (Greiner Bio-One) were pre-coated with 2 µg mL^−1 anti-C9 monoclonal antibody (Rho 1D4; University of British Columbia)[27] in 20 mM sodium carbonate, pH 9.6, at 4 °C for overnight prior to the assay. On the assay day, plates were washed 3× with 0.1% Tween in 50 mM Tris Buffer Saline, pH 7.5 (TBST), and then blocked for greater than 1 h at room temperature (RT) with 1% BSA (Sigma) in TBST.
Stably transfected HEK293 cells over-expressing human holoIR-A containing a C-terminal C9 epitope tag ([…]), were plated at 6 × 10^4 cells per well serum-starved using 0.1% BSA in DMEM (Gibco) for overnight at standard tissue culture condition. […] After a 15-min incubation in lysis buffer at 4 °C, the lysate was transferred to anti-C9 antibody coated capture plate (Rho 1D4; University of British Columbia)[27]. […] After a 1 h incubation at room temperature, the secondary antibody was removed by washing 3× with TBST. Signal detection occurred with the addition of TMB, an HRP substrate (Pierce). After 5–10 min, the reaction was stopped by adding an equal volume of 2 M H2SO4, and the absorbance readings at 450 nm (A450) were recorded using a Envision plate reader (PerkinElmer). Samples were tested in three independent assay runs on three different days.
Percent specific response (y-axis) was plotted versus the log concentration of compound (x-axis) using Prism Version 9.3.1 (GraphPad Software). Individual measurements are provided as Source Data.

[2] = mean of 3 runs, read-out: hIRA Binding Ki Mean
[3] = run 1, read-out: hIRA Binding Ki Run 1
[4] = run 2, read-out: hIRA Binding Ki Run 2
[5] = run 3, read-out: hIRA Binding Ki Run 3

T1 sequence (P06213 28-1370 isoform P06213-2 limits assumed): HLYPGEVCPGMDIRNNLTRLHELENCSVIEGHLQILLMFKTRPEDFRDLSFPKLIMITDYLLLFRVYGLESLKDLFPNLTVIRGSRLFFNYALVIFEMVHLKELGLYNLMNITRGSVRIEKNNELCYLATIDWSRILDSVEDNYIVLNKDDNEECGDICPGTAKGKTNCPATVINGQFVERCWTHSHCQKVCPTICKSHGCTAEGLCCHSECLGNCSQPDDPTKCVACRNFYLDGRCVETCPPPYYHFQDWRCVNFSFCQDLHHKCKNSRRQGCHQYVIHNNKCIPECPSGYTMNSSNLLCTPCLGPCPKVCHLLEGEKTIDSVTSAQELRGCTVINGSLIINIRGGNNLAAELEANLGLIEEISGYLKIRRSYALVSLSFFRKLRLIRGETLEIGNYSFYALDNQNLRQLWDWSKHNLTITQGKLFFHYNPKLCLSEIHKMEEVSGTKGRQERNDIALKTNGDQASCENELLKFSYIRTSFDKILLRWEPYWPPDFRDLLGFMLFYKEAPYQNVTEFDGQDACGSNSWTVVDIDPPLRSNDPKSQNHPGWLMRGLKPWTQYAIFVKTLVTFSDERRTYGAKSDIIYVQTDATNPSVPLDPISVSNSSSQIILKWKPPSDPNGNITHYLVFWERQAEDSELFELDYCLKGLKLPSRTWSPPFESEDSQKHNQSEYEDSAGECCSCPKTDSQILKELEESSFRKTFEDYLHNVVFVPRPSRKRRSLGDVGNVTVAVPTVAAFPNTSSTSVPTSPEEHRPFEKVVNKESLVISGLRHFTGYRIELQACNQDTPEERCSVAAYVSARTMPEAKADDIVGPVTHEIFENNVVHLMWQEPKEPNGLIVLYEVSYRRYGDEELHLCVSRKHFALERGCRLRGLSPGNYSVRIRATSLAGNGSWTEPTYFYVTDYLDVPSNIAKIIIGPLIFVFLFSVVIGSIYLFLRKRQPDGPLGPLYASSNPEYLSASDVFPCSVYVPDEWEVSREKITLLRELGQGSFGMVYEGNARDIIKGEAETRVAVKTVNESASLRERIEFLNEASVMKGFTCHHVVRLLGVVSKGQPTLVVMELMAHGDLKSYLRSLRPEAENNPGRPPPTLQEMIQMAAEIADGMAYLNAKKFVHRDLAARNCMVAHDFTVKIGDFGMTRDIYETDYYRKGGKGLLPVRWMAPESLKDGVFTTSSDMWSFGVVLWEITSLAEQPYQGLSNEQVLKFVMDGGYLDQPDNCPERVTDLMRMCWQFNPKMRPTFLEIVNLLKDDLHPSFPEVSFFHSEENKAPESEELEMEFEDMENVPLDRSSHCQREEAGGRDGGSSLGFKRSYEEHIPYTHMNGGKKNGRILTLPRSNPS
T1 sequence (P06213 763-1382 partner limits assumed): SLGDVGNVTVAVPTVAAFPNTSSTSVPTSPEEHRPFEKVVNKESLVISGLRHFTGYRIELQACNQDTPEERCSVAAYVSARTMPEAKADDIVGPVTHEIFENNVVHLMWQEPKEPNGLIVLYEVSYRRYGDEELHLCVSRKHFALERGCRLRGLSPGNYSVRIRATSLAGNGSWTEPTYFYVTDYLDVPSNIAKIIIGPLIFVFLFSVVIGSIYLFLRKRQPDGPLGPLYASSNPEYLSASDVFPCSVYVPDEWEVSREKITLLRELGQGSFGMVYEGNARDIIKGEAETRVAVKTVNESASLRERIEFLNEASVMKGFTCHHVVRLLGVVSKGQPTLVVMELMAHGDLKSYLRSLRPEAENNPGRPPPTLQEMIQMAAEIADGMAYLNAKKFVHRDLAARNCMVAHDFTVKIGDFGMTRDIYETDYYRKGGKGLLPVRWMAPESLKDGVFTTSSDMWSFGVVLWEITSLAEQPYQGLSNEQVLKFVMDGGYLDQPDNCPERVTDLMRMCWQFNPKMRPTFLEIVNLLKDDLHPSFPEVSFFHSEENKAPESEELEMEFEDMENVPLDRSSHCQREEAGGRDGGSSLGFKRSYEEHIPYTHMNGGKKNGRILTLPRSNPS
T2 sequence (P06213 28-1370 isoform P06213-2 limits assumed): as the sequence (P06213 28-1370 isoform P06213-2 limits assumed) above
T2 sequence (P06213 763-1382 partner limits assumed): as the sequence (P06213 763-1382 partner limits assumed) above

Row | SMILES | Ki (human IR-A (holoIR-A); [2]) | Ki (human IR-A (holoIR-A); [3]) | Ki (human IR-A (holoIR-A); [4]) | Ki (human IR-A (holoIR-A); [5]) | hIRA Phosph IC50 Run 1 [1] | hIRA Phosph IC50 Run 2 [1] | hIRA Phosph IC50 Run 3 [1] | IC50 [1] | reduction in ki for hIR-A on substitution (human IR-A (holoIR-A))
1 | CC[C@H](C)[C@H](NC(=O)[C@H](CCC(N)=O)NC(=O)[C@H](C)NC(=O)[C@H](Cc1c[nH]c2ccccc12)NC(=O)[C@H](CCC(=O)O)NC(=O)[C@H](CCC(=O)O)NC(=O)[C@H](CCCNC(=N)N)NC(=O)[C@H](CC(C)C)NC(=O)[C@H](CO)NC(C)=O)C(=O)N[C@@H](CCC(=O)O)C(=O)N[C@H]1CSSC[C@@H](C(=O)N2CCC[C@H]2C(=O)N2CCC[C@H]2C(=O)N[C@@H](CO)C(=O)N[C@@H](CCC(=O)O)C(=O)N[C@@H](CO)C(N)=O)NC(=O)[C@H](CCCNC(=N)N)NC(=O)CNC(=O)[C@H](Cc2ccc(O)cc2)NC(=O)[C@H](C(C)C)NC(=O)[C@H](CCC(=O)O)NC1=O [Peptide E3R] (Ac-SLREEWAQIECEVYGRCPPSES-NH2; disulfide 11-17) | > 4240 nM | > 1210 nM | > 4160 nM | > 4240 nM | >10000 nM | >10000 nM | >10000 nM | > 10000 nM | 
2 | CC[C@H](C)[C@H](NC(=O)[C@H](CCC(N)=O)NC(=O)[C@H](C)NC(=O)[C@H](Cc1c[nH]c2ccccc12)NC(=O)[C@H](CCC(=O)O)NC(=O)[C@H](CCC(=O)O)NC(=O)[C@H](CCC(=O)O)NC(=O)[C@H](CC(C)C)NC(=O)[C@H](CO)NC(C)=O)C(=O)N[C@@H](CCC(=O)O)C(=O)N[C@H]1CSSC[C@@H](C(=O)N[C@@H](C)C(=O)N2CCC[C@H]2C(=O)N[C@@H](CO)C(=O)N[C@@H](CCC(=O)O)C(=O)N[C@@H](CO)C(N)=O)NC(=O)[C@H](CCCNC(=N)N)NC(=O)CNC(=O)[C@H](Cc2ccc(O)cc2)NC(=O)[C@H](C(C)C)NC(=O)[C@H](CCC(=O)O)NC1=O [Peptide P18A] (Ac-SLEEEWAQIECEVYGRCAPSES-NH2; disulfide 11-17) | 23.1 nM | 20.6 nM | 21.2 nM | 27.3 nM | 158 nM | 143 nM | 123 nM | 141 nM | lower than 5 fold
3 | CC[C@H](C)[C@H](NC(=O)[C@H](CCC(N)=O)NC(=O)[C@H](C)NC(=O)[C@H](Cc1c[nH]c2ccccc12)NC(=O)[C@H](CCC(=O)O)NC(=O)[C@H](CCC(=O)O)NC(=O)[C@H](CCC(=O)O)NC(=O)[C@H](CC(C)C)NC(=O)[C@H](CO)NC(C)=O)C(=O)N[C@@H](CCC(=O)O)C(=O)N[C@H]1CSSC[C@@H](C(=O)N2CCC[C@H]2C(=O)N2CCC[C@H]2C(=O)N[C@@H](CO)C(=O)N[C@@H](C)C(=O)N[C@@H](CO)C(N)=O)NC(=O)[C@H](CCCNC(=N)N)NC(=O)CNC(=O)[C@H](Cc2ccc(O)cc2)NC(=O)[C@H](C(C)C)NC(=O)[C@H](CCC(=O)O)NC1=O [Peptide E21A] (Ac-SLEEEWAQIECEVYGRCPPSAS-NH2; disulfide 11-17) | 17.5 nM | 19.79 nM | 18.2 nM | 14.7 nM | 147 nM | 122 nM | 132 nM | 134 nM | lower than 5 fold
4 | CC[C@H](C)[C@H](NC(=O)[C@H](CCC(N)=O)NC(=O)[C@H](C)NC(=O)[C@H](Cc1c[nH]c2ccccc12)NC(=O)[C@H](CCC(=O)O)NC(=O)[C@H](CCC(=O)O)NC(=O)[C@H](CCC(=O)O)NC(=O)[C@H](CC(C)C)NC(=O)[C@H](CO)NC(C)=O)C(=O)N[C@@H](C)C(=O)N[C@H]1CSSC[C@@H](C(=O)N2CCC[C@H]2C(=O)N2CCC[C@H]2C(=O)N[C@@H](CO)C(=O)N[C@@H](CCC(=O)O)C(=O)N[C@@H](CO)C(N)=O)NC(=O)[C@H](CCCNC(=N)N)NC(=O)CNC(=O)[C@H](Cc2ccc(O)cc2)NC(=O)[C@H](C(C)C)NC(=O)[C@H](CCC(=O)O)NC1=O [Peptide E10A] (Ac-SLEEEWAQIACEVYGRCPPSES-NH2; disulfide 11-17) | 19 nM | 19.4 nM | 16.4 nM | 21.2 nM | 272 nM | 217 nM | 236 nM | 242 nM | lower than 5 fold
5 | CC[C@H](C)[C@H](NC(=O)[C@H](C)NC(=O)[C@H](C)NC(=O)[C@H](Cc1c[nH]c2ccccc12)NC(=O)[C@H](CCC(=O)O)NC(=O)[C@H](CCC(=O)O)NC(=O)[C@H](CCC(=O)O)NC(=O)[C@H](CC(C)C)NC(=O)[C@H](CO)NC(C)=O)C(=O)N[C@@H](CCC(=O)O)C(=O)N[C@H]1CSSC[C@@H](C(=O)N2CCC[C@H]2C(=O)N2CCC[C@H]2C(=O)N[C@@H](CO)C(=O)N[C@@H](CCC(=O)O)C(=O)N[C@@H](CO)C(N)=O)NC(=O)[C@H](CCCNC(=N)N)NC(=O)CNC(=O)[C@H](Cc2ccc(O)cc2)NC(=O)[C@H](C(C)C)NC(=O)[C@H](CCC(=O)O)NC1=O [Peptide Q8A] (Ac-SLEEEWAAIECEVYGRCPPSES-NH2; disulfide 11-17) | 6.05 nM | 5.17 nM | 6.67 nM | 6.31 nM | 84 nM | 92 nM | 99 nM | 91.9 nM | lower than 5 fold
6 | CC[C@H](C)[C@H](NC(=O)[C@H](CCC(N)=O)NC(=O)[C@H](C)NC(=O)[C@H](Cc1c[nH]c2ccccc12)NC(=O)[C@H](CCC(=O)O)NC(=O)[C@H](CCCNC(=N)N)NC(=O)[C@H](CCC(=O)O)NC(=O)[C@H](CC(C)C)NC(=O)[C@H](CO)NC(C)=O)C(=O)N[C@@H](CCC(=O)O)C(=O)N[C@H]1CSSC[C@@H](C(=O)N2CCC[C@H]2C(=O)N2CCC[C@H]2C(=O)N[C@@H](CO)C(=O)N[C@@H](CCC(=O)O)C(=O)N[C@@H](CO)C(N)=O)NC(=O)[C@H](CCCNC(=N)N)NC(=O)CNC(=O)[C@H](Cc2ccc(O)cc2)NC(=O)[C@H](C(C)C)NC(=O)[C@H](CCC(=O)O)NC1=O [Peptide E4R] (Ac-SLEREWAQIECEVYGRCPPSES-NH2; disulfide 11-17) | 38 nM | 42.4 nM | 35.7 nM | 35.9 nM | 367 nM | 259 nM | 348 nM | 325 nM | 
